Measured values reported in patent US20080145316A1, “Skin coating with microbial indicator” (priority 2006, published 2008).

Experiments:
S. aureus [1] = assay: Color change measurement with spectrometer (Minolta cm-2600d), film area before and after exposure to microbes; conditions: CIELAB, cured InteguSeal film before vs after exposure to microbes
Source text: The color change inherent in the skin coating with indicator may be considered as a visual indicator with the user visually observing a color change as a signal that infection or microbial contamination is present, or the color change could also be measured electronically. Such measurements could be conducted using an optical device or other spectroscopic methods known to those skilled in the art to measure changes in color such as spectrophotometers and spectrodenitometers. The instruments measure color space (as described in “Pocket guide to digital printing” (1997) by Frank Cost, Delmar Publishers Inc., at page 144), the most widely used color space is CIELAB. This defines three variables, L*, a*, and b*, that have the following meaning:
Because CIELAB color space is somewhat uniform, a single number can be calculated that represents the difference between two colors as perceived by the human being. This difference is termed ΔE and is calculated by taking the square root of the sum of the squares of the three differences (ΔL*, Δa*, and Δb*) between the two colors (i.e. starting color and after color change).
Although in each of the examples described above the color change when in contact with microbes was clearly visible it would also be possible to measure this color change with an optical color change meter or sensor. This was conduced on Examples 1, 2, and 3 by illustration. The color change was measured using a spectrometer (Minolta cm-2600d. Minolta Co., Japan) and the reading obtained by measuring the film area before and after exposure to microbes. The reading was recorded in units of ΔE.

S. aureus [2] = assay: Colour change of cured skin sealant film containing indicator dye on contact with S. aureus suspension; conditions: 100 μL S. aureus 10^6 CFU/mL on cured InteguSeal film, dye 200-300 ppm
Description: Reichardt's dye (from Sigma-Aldrich Chemical Co. Inc., Milwaukee Wis.) was mixed into 2 grams of InteguSeal® skin sealant (Medlogic Global Ltd., Cornwall, UK) containing an extra 0.2 gram of tributyl o-acetylcitrate placticizer (from Sigma-Aldrich) to give a deep blue solution with 200 ppm concentration of the dye. A drop (25 mg) of the mixture was then placed onto a microscope glass slide (5 cm×7.5 cm) and spread out using a glass rod to give thin coating smear (3 cm×2 cm). After complete cure had occurred (5 minutes) the cured film was exposed to a suspension of S. aureus (gram positive bacteria) at 10^6 CFU/mL (colony forming units). 100 μL of this suspension was placed onto a spot on the cured film and the area observed. In less than 10 seconds the area in contact with the bacteria suspension decolorized, visually indicating the contamination. When a 100 μL sample of the control media broth or water alone was placed on the sealant no color discharge was observed.
A 2 gram blue-purple solution of 300 ppm Chrome Azurol S (from Sigma-Aldrich) in InteguSeal® skin sealant was prepared to give a 300 ppm concentration of the dye. A drop 25 mg of the mixture was placed onto a glass slide and spread using a glass rod to give a thin smear. The sealant was allowed to fully cure (5 minutes). After this time 100 μL suspension of S. aureus at 10^6 CFU/mL was placed on the cure sealant and then visually observed for a color change.
(§1) A 2 gram solution of 300 ppm Phenol Red (from Sigma-Aldrich) in InteguSeal® skin sealant was prepared by mixing the ingredients to give a pale pink-gray liquid. 25 mg of the mixture was then placed onto a glass slide and spread out using a glass rod to give a thin coating smear on the glass. After the mixture fully cured (5 minutes) 100 μL of suspension of S. aureus bacteria at 10^6 CFU/mL was placed onto the cured sealant and visually observed for any color change. […] No color change or development was observed when the color media or water was placed on the sealant film.
A 2 gram sample of 300 ppm Eriochrome Blue Black B (from Sigma-Aldrich) in InteguSeal® skin sealant was prepared by mixing the ingredients to give a gray-blue mixture. 25 mg of the mixture was placed on a glass slide and spread with a glass rod to give a thin smear. The film was allowed to fully cure (5 minutes) and then 100 μL of S. aureus suspension at 10^6 CFU/mL was applied to the cured film and observed for a color change. […] No color change was observed when control media or water was applied to the film.

E. coli = assay: Colour change of cured film containing indicator dye on contact with E. coli suspension; conditions: for time to visible color change of film / visually observed color change: 100 μL E. coli 10^5 CFU/mL on cured InteguSeal film, dye 200-300 ppm
Description: as §1, with “E. coli” for “S. aureus”, “10^5” for “10^6”
(§2) Reichardt's dye (from Sigma-Aldrich) was mixed into 2 grams of InteguSeal® skin sealant containing an extra 0.2 gram of tributyl o-acetylcitrate placticizer (from Sigma-Aldrich) to give a deep blue solution with 200 ppm concentration of the dye. A drop (25 mg) of the mixture was then placed onto a microscope glass slide (5 cm×7.5 cm) and spread out using a glass rod to give thin coating smear (3 cm×2 cm). After complete cure had occurred (5 minutes) the cured film was exposed to a suspension of E. coli (gram negative bacteria) at 10^5 CFU/mL (colony forming units). 100 μL of this suspension was placed onto a spot on the cured film and the area observed. In less than 10 seconds the area in contact with the bacteria suspension decolorized, visually indicating the contamination. When a 100 μL sample of the control media broth or water alone was placed on the sealant no color discharge was observed. On a separate untouched part of the cured film was placed 100 μL suspension of A. niger (mold) at 10^5 CFU/mL and the area again observed. In less than 10 seconds the Reichardt's dye had decolorized where the mold suspension was in contact with the film.
Phenol red was dissolved in 3 other curable resins at a concentration of 300 ppm and tested with E. coli as described in example 5 above. The resins tried were: • Elmer's glue-all (Elmer's Products Inc., Columbus Ohio) • Contact cement (DAP Weldwood Inc., Dayton, Ohio) • Gelatin USP (unflavored. The Kroger Co., Cincinnati, Ohio) 100 μL suspension of E. coli was then placed on the cured film and visually observed. In all three resins the area in direct contact with the bacteria suspension turned red.

A. niger = assay: Colour change of cured skin sealant film containing indicator dye on contact with A. niger suspension; conditions: 100 μL A. niger (mold) 10^5 CFU/mL on cured InteguSeal film, dye 200 ppm
Description: as §2

CC1=C/C(=C(\c2cc(C)c(O)c(C(=O)[O-])c2)c2c(Cl)ccc(S(=O)(=O)[O-])c2Cl)C=C(C(=O)[O-])C1=O.[Na+].[Na+].[Na+] [Chrome Azurol S]
color change ΔE (S. aureus [1]): 27 ΔE
time to visible color change of film (S. aureus [2]): ≤ 5 s
visually observed color change (S. aureus [2]): red color developed

O=S(=O)([O-])c1cc(O)c(/N=N/c2ccc3ccccc3c2O)c2ccccc12.[Na+] [Eriochrome Blue Black B]
time to visible color change of film (S. aureus [2]): less than 5 seconds
visually observed color change (S. aureus [2]): film color was discharged to leave a colorless spot

O=S1(=O)OC(c2ccc(O)cc2)(c2ccc(O)cc2)c2ccccc21 [Phenol Red, phenolsulfonephthalein]
color change ΔE (S. aureus [1]): 35 ΔE
time to visible color change of film (S. aureus [2]): less than 5 seconds
visually observed color change (S. aureus [2]): bright red color developed
time to visible color change of film (E. coli): less than 5 seconds
visually observed color change (E. coli): bright red color developed
visually observed color change in other curable resins (E. coli; 300 ppm dye in Elmer's glue-all, Contact cement, Gelatin USP, 100 μL E. coli suspension on cured film, all three resins): turned red

[O-]c1c(-c2ccccc2)cc(-[n+]2c(-c3ccccc3)cc(-c3ccccc3)cc2-c2ccccc2)cc1-c1ccccc1 [Reichardt's dye, 4-(2,4,6-triphenylpyridinium-1-yl)-2,6-diphenylphenolate]
color change ΔE (S. aureus [1]): 32 ΔE
time to visible color change of film (A. niger): less than 10 seconds
visually observed color change (A. niger): decolorized
time to visible color change of film (S. aureus [2]): less than 10 seconds
visually observed color change (S. aureus [2]): decolorized
time to visible color change of film (E. coli): less than 10 seconds
visually observed color change (E. coli): decolorized
